Measured values as given in PubChem BioAssay AID2060905 (Molecular Pharmacology Branch, DTP, NCI, 2025).

Test system: 282377-053-R-J1-PDC complex spheroid viability
Assay: Anticancer human tumor 282377-053-R-J1-PDC patient-derived colon adenocarcinoma cell line growth inhibition [RAS]
Details: for IC50: curve of first compound; for viability, T/C: stronger effect = lower value
In short: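 Tumour cells grown as complex spheroids with HUVEC endothelial cells and mesenchymal stem cells, treated with RAS pathway inhibitor combinations. Each agent spans half-log steps from near clinical Cmax, or 10 microM where Cmax is unknown.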

[1] = second compound 0.00316 µM, first compound 0.0316 µM
[2] = second compound 0.00316 µM, first compound 0.1 µM
[3] = second compound 0.00316 µM, first compound 0.316 µM
[4] = second compound 0.00316 µM, first compound 1 µM
[5] = second compound 0.00316 µM, first compound 3.16 µM
[6] = second compound 0.00316 µM, first compound 10 µM
[7] = second compound 0.01 µM, first compound 0.0316 µM
[8] = second compound 0.01 µM, first compound 0.1 µM
[9] = second compound 0.01 µM, first compound 0.316 µM
[10] = second compound 0.01 µM, first compound 1 µM
[11] = second compound 0.01 µM, first compound 3.16 µM
[12] = second compound 0.01 µM, first compound 10 µM
[13] = second compound 0.0316 µM, first compound 0.0316 µM
[14] = second compound 0.0316 µM, first compound 0.1 µM
[15] = second compound 0.0316 µM, first compound 0.316 µM
[16] = second compound 0.0316 µM, first compound 1 µM
[17] = second compound 0.0316 µM, first compound 3.16 µM
[18] = second compound 0.0316 µM, first compound 10 µM
[19] = second compound 0.1 µM, first compound 0.0316 µM
[20] = second compound 0.1 µM, first compound 0.1 µM
[21] = second compound 0.1 µM, first compound 0.316 µM
[22] = second compound 0.1 µM, first compound 1 µM
[23] = second compound 0.1 µM, first compound 3.16 µM
[24] = second compound 0.1 µM, first compound 10 µM
[25] = second compound 0.316 µM, first compound 0.0316 µM
[26] = second compound 0.316 µM, first compound 0.1 µM
[27] = second compound 0.316 µM, first compound 0.316 µM
[28] = second compound 0.316 µM, first compound 1 µM
[29] = second compound 0.316 µM, first compound 3.16 µM
[30] = second compound 0.316 µM, first compound 10 µM
[31] = second compound 1 µM, first compound 0.0316 µM
[32] = second compound 1 µM, first compound 0.1 µM
[33] = second compound 1 µM, first compound 0.316 µM
[34] = second compound 1 µM, first compound 1 µM
[35] = second compound 1 µM, first compound 3.16 µM
[36] = second compound 1 µM, first compound 10 µM
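Also: spheroids exposed to agents for seven days before readout.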
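For viability, T/C in this document: luminescence viability as percent of DMSO vehicle control wells.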

## CC1(O)CCCC1n1c(=O)c(C(F)F)cc2cnc(NC3CCN(S(C)(=O)=O)CC3)nc21 (stereo not given) + C=CC(=O)N1CCN(c2nc(OCC3CCCN3C)nc3c(F)c(-c4nc(N)cc(C)c4C(F)(F)F)c(Cl)cc23)C(C)C1
Second compound 0.00316 µM
  IC50: 6.01 µM
Second compound 0.01 µM
  IC50: 6.03 µM
Second compound 0.0316 µM
  IC50: 5.93 µM
Second compound 0.1 µM
  IC50: 6.22 µM
Second compound 0.316 µM
  IC50: 6.21 µM
Second compound 1 µM
  IC50: 6.48 µM
[1]
  viability, T/C: 124%
[2]
  viability, T/C: 124%
[3]
  viability, T/C: 134%
[4]
  viability, T/C: 106%
[5]
  viability, T/C: 109%
[6]
  viability, T/C: 2.69%
[7]
  viability, T/C: 118%
[8]
  viability, T/C: 113%
[9]
  viability, T/C: 107%
[10]
  viability, T/C: 122%
[11]
  viability, T/C: 110%
[12]
  viability, T/C: 2.79%
[13]
  viability, T/C: 102%
[14]
  viability, T/C: 141%
[15]
  viability, T/C: 123%
[16]
  viability, T/C: 110%
[17]
  viability, T/C: 107%
[18]
  viability, T/C: 3.33%
[19]
  viability, T/C: 107%
[20]
  viability, T/C: 117%
[21]
  viability, T/C: 124%
[22]
  viability, T/C: 118%
[23]
  viability, T/C: 119%
[24]
  viability, T/C: 2.9%
[25]
  viability, T/C: 108%
[26]
  viability, T/C: 112%
[27]
  viability, T/C: 125%
[28]
  viability, T/C: 111%
[29]
  viability, T/C: 128%
[30]
  viability, T/C: 2.56%
[31]
  viability, T/C: 131%
[32]
  viability, T/C: 131%
[33]
  viability, T/C: 135%
[34]
  viability, T/C: 132%
[35]
  viability, T/C: 129%
[36]
  viability, T/C: 2.51%

## CCC(CC)c1cc(NC2CCC(N)C2)n2nccc2n1 (stereo not given) + C=CC(=O)N1CCN(c2nc(OCC3CCCN3C)nc3c(F)c(-c4nc(N)cc(C)c4C(F)(F)F)c(Cl)cc23)C(C)C1
Second compound 0.00316 µM
  IC50: 1.94 µM
Second compound 0.01 µM
  IC50: 1.9 µM
Second compound 0.0316 µM
  IC50: 1.82 µM
Second compound 0.1 µM
  IC50: 1.69 µM
Second compound 0.316 µM
  IC50: 1.86 µM
Second compound 1 µM
  IC50: 1.89 µM
[1]
  viability, T/C: 117%
[2]
  viability, T/C: 101%
[3]
  viability, T/C: 93.8%
[4]
  viability, T/C: 116%
[5]
  viability, T/C: 7.62%
[6]
  viability, T/C: 2.24%
[7]
  viability, T/C: 110%
[8]
  viability, T/C: 98.1%
[9]
  viability, T/C: 92%
[10]
  viability, T/C: 115%
[11]
  viability, T/C: 7.28%
[12]
  viability, T/C: 1.55%
[13]
  viability, T/C: 103%
[14]
  viability, T/C: 97%
[15]
  viability, T/C: 96.3%
[16]
  viability, T/C: 94.5%
[17]
  viability, T/C: 8.89%
[18]
  viability, T/C: 1.69%
[19]
  viability, T/C: 124%
[20]
  viability, T/C: 107%
[21]
  viability, T/C: 113%
[22]
  viability, T/C: 85.3%
[23]
  viability, T/C: 7.78%
[24]
  viability, T/C: 1.54%
[25]
  viability, T/C: 111%
[26]
  viability, T/C: 105%
[27]
  viability, T/C: 109%
[28]
  viability, T/C: 100%
[29]
  viability, T/C: 7.41%
[30]
  viability, T/C: 1.9%
[31]
  viability, T/C: 109%
[32]
  viability, T/C: 103%
[33]
  viability, T/C: 123%
[34]
  viability, T/C: 102%
[35]
  viability, T/C: 7.89%
[36]
  viability, T/C: 2.25%

## CCN1CCN(Cc2ccc(Nc3ncc(F)c(-c4cc(F)c5nc(C)n(C(C)C)c5c4)n3)nc2)CC1 + C=CC(=O)N1CCN(c2nc(OCC3CCCN3C)nc3c(F)c(-c4nc(N)cc(C)c4C(F)(F)F)c(Cl)cc23)C(C)C1
Second compound 0.00316 µM
  IC50: > 1 µM
Second compound 0.01 µM
  IC50: > 1 µM
Second compound 0.0316 µM
  IC50: > 1 µM
Second compound 0.1 µM
  IC50: > 1 µM
Second compound 0.316 µM
  IC50: > 1 µM
Second compound 1 µM
  IC50: > 1 µM
Second compound 0.00316 µM, first compound 0.00316 µM
  viability, T/C: 114%
Second compound 0.00316 µM, first compound 0.01 µM
  viability, T/C: 106%
[1]
  viability, T/C: 102%
[2]
  viability, T/C: 125%
[3]
  viability, T/C: 131%
[4]
  viability, T/C: 134%
Second compound 0.01 µM, first compound 0.00316 µM
  viability, T/C: 104%
Second compound 0.01 µM, first compound 0.01 µM
  viability, T/C: 106%
[7]
  viability, T/C: 91.4%
[8]
  viability, T/C: 112%
[9]
  viability, T/C: 146%
[10]
  viability, T/C: 131%
Second compound 0.0316 µM, first compound 0.00316 µM
  viability, T/C: 117%
Second compound 0.0316 µM, first compound 0.01 µM
  viability, T/C: 87.1%
[13]
  viability, T/C: 100%
[14]
  viability, T/C: 121%
[15]
  viability, T/C: 141%
[16]
  viability, T/C: 132%
Second compound 0.1 µM, first compound 0.00316 µM
  viability, T/C: 97.1%
Second compound 0.1 µM, first compound 0.01 µM
  viability, T/C: 108%
[19]
  viability, T/C: 100%
[20]
  viability, T/C: 104%
[21]
  viability, T/C: 106%
[22]
  viability, T/C: 135%
Second compound 0.316 µM, first compound 0.00316 µM
  viability, T/C: 85.5%
Second compound 0.316 µM, first compound 0.01 µM
  viability, T/C: 115%
[25]
  viability, T/C: 122%
[26]
  viability, T/C: 99.8%
[27]
  viability, T/C: 126%
[28]
  viability, T/C: 126%
Second compound 1 µM, first compound 0.00316 µM
  viability, T/C: 109%
Second compound 1 µM, first compound 0.01 µM
  viability, T/C: 104%
[31]
  viability, T/C: 121%
[32]
  viability, T/C: 113%
[33]
  viability, T/C: 138%
[34]
  viability, T/C: 134%

## Cc1nc(N2CCC3(CC2)COC(C)C3N)c(CO)nc1Sc1ccnc(N)c1Cl (stereo not given) + C=CC(=O)N1CCN(c2nc(OCC3CCCN3C)nc3c(F)c(-c4nc(N)cc(C)c4C(F)(F)F)c(Cl)cc23)C(C)C1
Second compound 0.00316 µM
  IC50: > 10 µM
Second compound 0.01 µM
  IC50: > 10 µM
Second compound 0.0316 µM
  IC50: > 10 µM
Second compound 0.1 µM
  IC50: > 10 µM
Second compound 0.316 µM
  IC50: > 10 µM
Second compound 1 µM
  IC50: > 10 µM
[1]
  viability, T/C: 111%
[2]
  viability, T/C: 101%
[3]
  viability, T/C: 118%
[4]
  viability, T/C: 103%
[5]
  viability, T/C: 108%
[6]
  viability, T/C: 116%
[7]
  viability, T/C: 100%
[8]
  viability, T/C: 122%
[9]
  viability, T/C: 103%
[10]
  viability, T/C: 109%
[11]
  viability, T/C: 92.5%
[12]
  viability, T/C: 127%
[13]
  viability, T/C: 93.6%
[14]
  viability, T/C: 98.3%
[15]
  viability, T/C: 109%
[16]
  viability, T/C: 82.8%
[17]
  viability, T/C: 76.3%
[18]
  viability, T/C: 124%
[19]
  viability, T/C: 89.5%
[20]
  viability, T/C: 92.4%
[21]
  viability, T/C: 110%
[22]
  viability, T/C: 112%
[23]
  viability, T/C: 105%
[24]
  viability, T/C: 110%
[25]
  viability, T/C: 103%
[26]
  viability, T/C: 96.6%
[27]
  viability, T/C: 85.5%
[28]
  viability, T/C: 101%
[29]
  viability, T/C: 100%
[30]
  viability, T/C: 108%
[31]
  viability, T/C: 106%
[32]
  viability, T/C: 113%
[33]
  viability, T/C: 118%
[34]
  viability, T/C: 86.2%
[35]
  viability, T/C: 110%
[36]
  viability, T/C: 101%

## NC1c2ccccc2OC12CCN(c1cnc3c(N4CCCc5ncccc54)n[nH]c3n1)CC2 (stereo not given) + C=CC(=O)N1CCN(c2nc(OCC3CCCN3C)nc3c(F)c(-c4nc(N)cc(C)c4C(F)(F)F)c(Cl)cc23)C(C)C1
Second compound 0.00316 µM
  IC50: > 10 µM
Second compound 0.01 µM
  IC50: > 10 µM
Second compound 0.0316 µM
  IC50: > 10 µM
Second compound 0.1 µM
  IC50: > 10 µM
Second compound 0.316 µM
  IC50: > 10 µM
Second compound 1 µM
  IC50: > 10 µM
[1]
  viability, T/C: 114%
[2]
  viability, T/C: 104%
[3]
  viability, T/C: 102%
[4]
  viability, T/C: 95%
[5]
  viability, T/C: 105%
[6]
  viability, T/C: 79%
[7]
  viability, T/C: 89.9%
[8]
  viability, T/C: 112%
[9]
  viability, T/C: 99.1%
[10]
  viability, T/C: 118%
[11]
  viability, T/C: 93.8%
[12]
  viability, T/C: 86.5%
[13]
  viability, T/C: 106%
[14]
  viability, T/C: 105%
[15]
  viability, T/C: 92.9%
[16]
  viability, T/C: 92.2%
[17]
  viability, T/C: 90.3%
[18]
  viability, T/C: 83.5%
[19]
  viability, T/C: 82.1%
[20]
  viability, T/C: 87.8%
[21]
  viability, T/C: 84.1%
[22]
  viability, T/C: 108%
[23]
  viability, T/C: 122%
[24]
  viability, T/C: 84.2%
[25]
  viability, T/C: 88%
[26]
  viability, T/C: 98.6%
[27]
  viability, T/C: 95.8%
[28]
  viability, T/C: 96.5%
[29]
  viability, T/C: 113%
[30]
  viability, T/C: 91.1%
[31]
  viability, T/C: 97.5%
[32]
  viability, T/C: 106%
[33]
  viability, T/C: 103%
[34]
  viability, T/C: 104%
[35]
  viability, T/C: 104%
[36]
  viability, T/C: 86.6%
